Measurements from patent US11584737B2, “Heterocyclic compound” (TAKEDA PHARMACEUTICAL COMPANY LIMITED, priority 2018, dated 2023).

Experiments:
CDK12/CycK complex [1] = molecular target: T1, CDK12/CycK complex (Homo sapiens, UniProt Q9NYV4); experiment: Measurement of CDK12 inhibitory activity by binding assay (TR-FRET, 66 nM BODIPY-FL-labeled AT-7519); details: inhibitory rate against CDK12 at 1 μM test compound, 66 nM BODIPY-FL-labeled AT-7519, 2 nM CDK12/CycK
Procedure, shortened: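 His-tagged CDK12/CycK (2 nM) premixed with 66 nM BODIPY-FL-AT-7519 tracer, 0.2 nM Tb-streptavidin and 0.4 nM biotin-anti-His, then incubated with compound 120 min at room temperature. Tracer displacement read as BODIPY-FL/Tb TR-FRET ratio; percent inhibition normalized to no-compound control and 3 μM AT-7519 blank.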

CDK12/CycK enzyme = CDK12/CycK enzyme (Homo sapiens, UniProt Q9NYV4); experiment: Measurement of CDK12/CycK inhibitory activity (ULight-4E-BP1 peptide phosphorylation, LANCE); assay type: biochemical; details: inhibitory rate against CDK12/CycK at 1 μM test compound, ATP 10 μM or 500 μM
Experimental: Experimental Example 2: Measurement of CDK12/CycK Inhibitory Activity
A test compound dissolved in DMSO was added to a reaction solution (50 mM HEPES (pH 7.5), 10 mM MgCl2, 1 mM DTT, 0.01% Tween 20, 0.01% BSA) containing CDK12/CycK enzyme and ULight-labeled eIF4E-binding protein 1 (4E-BP1) (Thr37/Thr46) peptide (PerkinElmer), and the mixture was reacted at room temperature for 60 min. […] was added to give an ATP solution with a final concentration of 10 μM or 500 μM to start the enzyme reaction, and the mixture was reacted at room temperature for 60 min. A LANCE Detection buffer (PerkinElmer) containing europium-labeled anti-phosphorylation 4E-BP1 (Thr37/Thr46) antibody (PerkinElmer) and EDTA (final concentration 10 mM) was added to discontinue the reaction. After standing for 60 min, time decomposition fluorescence value (excitation 320 nm, emission 615 nm, 665 nm) was measured by Envision (PerkinElmer). The inhibitory rate (%) of the test compound against CDK12/CyclinK was calculated by the following formula. Inhibitory rate (%)=(1−(count of test compound−blank)÷(control−blank))×100
The count of the CDK12 enzyme reaction mixture under compound non-addition conditions is indicated as control, and the count under compound non-addition and CDK12/CycK enzyme non-addition conditions is indicated as blank.
The results measured by the above-mentioned method (inhibitory rate (%) of the signal value at 1 μM test compound relative to control is shown below.

[2] = test system: A2780 intracellular CTD pSer2; experiment: CTD pSer2 measurement using human ovarian cancer cell A2780 and In-Cell Western method; assay type: cell-based; details: inhibitory rate against A2780 intracellular CTD pSer2 at 1 μM test compound, 4 hr
Experimental: Experimental Example 3: CTD pSer2 Measurement Using Human Ovarian Cancer Cell A2780 and In-Cell Western Method
A2780 cells (ATCC) were seeded in a 96 well plate at 1.8×10^4 cells/well, and the cells were cultured overnight in a cell culture medium RPMI1640 (FUJIFILM Wako Pure Chemical Corporation) containing 10% FBS (fetal bovine serum) and 1% penicillin/streptomycin. A test compound dissolved in a cell medium was added, and the mixture was stood for 4 hr in a CO2 incubator (37° C.). The cells were fixed with ALTFiX (Falma) for 30 min, and washed 3 times with a washing buffer (20 mM Tris-HCl (pH 7.5), 500 mM NaCl, 0.1% Tween20). 0.1% Triton-X-100 diluted with PBS(−) was added and the mixture was incubated at room temperature for 15 min. Thereafter, a blocking buffer (LI-COR) was added, and the mixture was incubated at room temperature for 1 hr. An anti-CTD pS2 antibody (Abcam) suspended in an antibody diluent (blocking buffer: PBS(−)-diluted 0.1% Tween20=1:1) was added, and the mixture was incubated at room temperature for 1 hr. The mixture was […] with a washing buffer, IRDye800CW-labeled anti-goat antibody (LI-COR) was added, and the mixture was incubated at room temperature for 1 hr. The mixture was washed 3 times with a washing buffer, and the fluorescence wavelength at 800 nm was measured by Aerius (LI-COR).
The inhibitory rate (%) of the test compound against A2780 intracellular CTD pSer2 was calculated by the following formula. Inhibitory rate (%)=(1−(count of test compound−blank)÷(control−blank))×100
The count of the A2780 cell under compound non-addition conditions is indicated as control, and the count under compound non-addition and primary antibody non-addition conditions is indicated as blank.
The results measured by the above-mentioned method (inhibitory rate of the signal value at 1 μM test compound relative to control) are shown below.

A2780 cells = experiment: In vitro proliferation suppression test (CellTiter-Glo); assay type: cell-based, human; details: Homo sapiens, 72 h, A2780 cell proliferation inhibitory rate at 1 μM test compound, three days
Procedure, shortened: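 A2780 cells in RPMI1640 with 10% FBS were exposed to 1 μM compound for three days at 37° C, 5% CO2. CellTiter-Glo luminescence read; inhibition (%) calculated relative to wells without compound.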

CDK12/CycK complex [3] = molecular target: T1, CDK12/CycK complex; experiment: Measurement of CDK12 inhibitory activity by binding assay (BODIPY-FL labeled AT-7519 high concentration conditions, 1320 nM); details: inhibitory rate against CDK12 at 1 μM test compound, 1320 nM BODIPY-FL-labeled AT-7519, 8 nM CDK12/CycK
Procedure, shortened: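 His-tagged CDK12/CycK (8 nM) was incubated with test compound, BODIPY-FL-AT-7519 tracer (1320 nM), Tb-streptavidin (0.2 nM) and biotin-anti-His antibody (0.4 nM) for 120 min at room temperature. TR-FRET ratio (BODIPY-FL/Tb) gave % inhibition versus no-compound control and 30 μM AT-7519 blank; compounds tested at 1 μM.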

[4] = test system: Human breast cancer cells SUM149PT; experiment: Antitumor action on SUM149PT cells tumor-bearing model; assay type: in vivo; details: 60 mg/kg orally two times per day for 2 weeks; SUM149PT subcutaneous transplant in BALB/cAJcl-nu/nu mice; average tumor volume increase ratio vs control group
Experimental: Experimental Example 6: Antitumor Action on SUM149PT CELLS Tumor-Bearing Model
Human breast cancer cells SUM149PT were suspended in a solution of Matrigel (BD BIOSCIENCES):HBSS (Thermo Fisher Scientific)=1:1, and subcutaneously transplanted at 3×10^6 cells to the abdomen of BALB/cAJcl-nu/nu (CLEA Japan, Inc.). The tumor diameter of the engrafted tumor was measured and the tumor volume was calculated by the following formula. Tumor volume=major axis×minor axis×minor axis×(1/2)
Individuals having a tumor grown to a volume of about 120 mm^3 were selected, and 5 mice per group were used for the experiment. A suspension of the test compound in 0.5% methylcellulose solution (FUJIFILM Wako Pure Chemical Corporation) was orally administered at a dose of 60 mg/kg (10 mL/kg) two times per day for 2 weeks. The tumor volume was measured over time one day before the start of the administration, and every 4 days from day 3. The next day of the completion of medication for 14 days, the tumor diameter was finally measured and the tumor volume was calculated. The tumor proliferation rate of the test compound administration group in comparison with the control administration group was taken as an average tumor volume increase ratio T/C and calculated by the following formula. […]

T1 sequence (Q9NYV4 whole entry, species assumed): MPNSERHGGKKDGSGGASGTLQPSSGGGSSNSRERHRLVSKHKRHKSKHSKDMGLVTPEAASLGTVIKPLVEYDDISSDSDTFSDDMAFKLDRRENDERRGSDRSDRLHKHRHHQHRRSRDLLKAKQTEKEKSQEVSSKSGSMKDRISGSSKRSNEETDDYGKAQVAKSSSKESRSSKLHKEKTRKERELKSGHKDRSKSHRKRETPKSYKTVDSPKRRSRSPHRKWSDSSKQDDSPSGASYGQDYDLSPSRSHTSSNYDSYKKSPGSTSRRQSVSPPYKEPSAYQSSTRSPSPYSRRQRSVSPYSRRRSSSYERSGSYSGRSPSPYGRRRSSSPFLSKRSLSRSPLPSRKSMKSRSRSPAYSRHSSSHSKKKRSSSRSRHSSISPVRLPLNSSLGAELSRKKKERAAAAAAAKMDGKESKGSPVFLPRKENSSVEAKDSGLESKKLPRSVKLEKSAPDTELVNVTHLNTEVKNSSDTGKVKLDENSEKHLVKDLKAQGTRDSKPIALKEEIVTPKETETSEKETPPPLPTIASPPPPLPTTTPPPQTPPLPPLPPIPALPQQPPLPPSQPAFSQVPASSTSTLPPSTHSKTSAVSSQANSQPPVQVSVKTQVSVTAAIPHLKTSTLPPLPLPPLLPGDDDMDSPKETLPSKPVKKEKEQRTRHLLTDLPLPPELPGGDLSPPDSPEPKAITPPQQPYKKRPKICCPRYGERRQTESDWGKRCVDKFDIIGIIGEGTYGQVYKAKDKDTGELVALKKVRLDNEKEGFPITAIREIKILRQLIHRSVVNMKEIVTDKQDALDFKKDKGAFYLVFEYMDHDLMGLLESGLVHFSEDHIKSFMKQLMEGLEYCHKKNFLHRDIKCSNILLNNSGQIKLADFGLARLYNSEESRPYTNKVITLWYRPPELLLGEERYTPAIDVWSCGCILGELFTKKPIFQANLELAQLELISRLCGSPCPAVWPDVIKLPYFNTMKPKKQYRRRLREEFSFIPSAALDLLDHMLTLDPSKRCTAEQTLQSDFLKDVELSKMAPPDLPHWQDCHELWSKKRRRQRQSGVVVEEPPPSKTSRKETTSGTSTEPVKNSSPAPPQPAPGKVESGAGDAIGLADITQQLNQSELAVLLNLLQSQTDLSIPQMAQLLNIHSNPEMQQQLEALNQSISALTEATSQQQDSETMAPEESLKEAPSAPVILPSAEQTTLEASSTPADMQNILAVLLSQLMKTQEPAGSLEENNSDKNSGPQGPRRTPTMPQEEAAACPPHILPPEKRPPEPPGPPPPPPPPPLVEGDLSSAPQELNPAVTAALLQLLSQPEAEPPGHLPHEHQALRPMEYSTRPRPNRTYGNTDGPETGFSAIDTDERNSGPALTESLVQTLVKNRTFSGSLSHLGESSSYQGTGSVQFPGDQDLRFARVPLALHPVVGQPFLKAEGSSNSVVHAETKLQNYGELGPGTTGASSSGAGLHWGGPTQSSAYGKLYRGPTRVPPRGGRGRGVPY
T1 sequence (O75909 whole entry partner, species assumed): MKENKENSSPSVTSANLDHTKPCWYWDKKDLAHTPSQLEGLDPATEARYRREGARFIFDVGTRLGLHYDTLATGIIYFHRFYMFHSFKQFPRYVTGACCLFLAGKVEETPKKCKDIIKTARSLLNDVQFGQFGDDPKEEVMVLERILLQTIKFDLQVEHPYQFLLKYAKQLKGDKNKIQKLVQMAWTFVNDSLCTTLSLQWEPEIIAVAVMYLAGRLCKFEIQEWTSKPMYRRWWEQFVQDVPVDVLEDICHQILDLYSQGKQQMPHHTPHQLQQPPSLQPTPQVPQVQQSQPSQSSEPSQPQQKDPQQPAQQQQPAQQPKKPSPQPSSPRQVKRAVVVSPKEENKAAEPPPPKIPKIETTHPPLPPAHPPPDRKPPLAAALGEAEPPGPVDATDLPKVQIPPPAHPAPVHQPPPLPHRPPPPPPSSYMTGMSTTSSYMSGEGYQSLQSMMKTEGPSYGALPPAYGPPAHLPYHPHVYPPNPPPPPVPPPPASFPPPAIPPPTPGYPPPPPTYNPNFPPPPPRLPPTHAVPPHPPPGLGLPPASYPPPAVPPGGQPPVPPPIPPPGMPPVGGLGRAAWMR
Chain of CDK12/CycK enzyme (Q9NYV4 whole entry, species assumed): as the sequence (Q9NYV4 whole entry, species assumed) above
Chain of CDK12/CycK enzyme (O75909 whole entry partner, species assumed): as the sequence (O75909 whole entry partner, species assumed) above

COc1ncc(-c2ccc(N(C(=O)NCc3ccccc3)[C@H]3CC[C@H](Nc4ncc(C#N)c(OC5COC5)n4)CC3)nc2)cn1 [Example 609, 3-benzyl-1-(trans-4-((5-cyano-4-(oxetan-3-yloxy)pyrimidin-2-yl)amino)cyclohexyl)-1-(5-(2-methoxypyrimidin-5-yl)pyridin-2-yl)urea]
inhibition at 1 µM (CDK12/CycK complex [1]): 99% | inhibition at 1 µM (CDK12/CycK enzyme): 107% | inhibition at 1 µM [2]: 41% | inhibition at 1 µM (A2780 cells): 99%

COc1ncc(-c2ccc(N(C(=O)NCc3ccccn3)[C@H]3CC[C@H](Nc4ncc(C(F)(F)F)c(OC5COC5)n4)CC3)nc2)cn1 [Example 610, 1-(5-(2-methoxypyrimidin-5-yl)pyridin-2-yl)-1-(trans-4-((4-(oxetan-3-yloxy)-5-(trifluoromethyl)pyrimidin-2-yl)amino)cyclohexyl)-3-(pyridin-2-ylmethyl)urea]
inhibition at 1 µM (CDK12/CycK complex [1]): 103% | inhibition at 1 µM (CDK12/CycK enzyme): 99% | inhibition at 1 µM [2]: 49% | inhibition at 1 µM (A2780 cells): 98%

COc1ncc(-c2cnc(N(C(=O)OCc3ccccc3)[C@H]3CC[C@H](Nc4ncc(C#N)c(N5CCCC(O)CC5)n4)CC3)nc2)cn1 (stereo partly drawn) [Example 611, benzyl (trans-4-((5-cyano-4-(4-hydroxyazepan-1-yl)pyrimidin-2-yl)amino)cyclohexyl) (2′-methoxy-5,5′-bipyrimidin-2-yl)carbamate]
inhibition at 1 µM (CDK12/CycK complex [1]): 101% | inhibition at 1 µM (CDK12/CycK enzyme): 101% | inhibition at 1 µM [2]: 48% | inhibition at 1 µM (A2780 cells): 97%

COc1ncc(-c2cnc(N(C(=O)NCc3ccccc3)[C@H]3CC[C@H](Nc4ncc(C(F)(F)F)c(OC5COC5)n4)CC3)cn2)cn1 [Example 612, 3-benzyl-1-(5-(2-methoxypyrimidin-5-yl)pyrazin-2-yl)-1-(trans-4-((4-(oxetan-3-yloxy)-5-(trifluoromethyl)pyrimidin-2-yl)amino)cyclohexyl)urea]
inhibition at 1 µM (CDK12/CycK complex [3]): 100% | inhibition at 1 µM (A2780 cells): 97% | T/C (%) [4]: −22%
